Measurements reported in BigSolDB 2.1.

C#C[C@]1(O)C=C[C@H]2[C@@H]3CCC4=CC(=O)CC[C@@H]4[C@H]3CC[C@@]21CC
solubility (mole fraction)
Settings	283.15 K	288.15 K	293.15 K	298.15 K	303.15 K	308.15 K	313.15 K	318.15 K	323.15 K
in 2-butanone	0.00956	0.0114	0.0134	0.0159	0.0188	0.0221	0.0258	0.0302	0.0352
in acetone	0.00379	0.00499	0.00654	0.00862	0.0113	0.0147	0.0189	0.024	0.0302
in acetonitrile	0.00262	0.00306	0.00358	0.00418	0.00487	0.00566	0.00655	0.00754	0.00868
in ethanol	0.00314	0.00387	0.00473	0.00577	0.00701	0.0085	0.0102	0.0123	0.0147
in ethyl acetate	0.0146	0.0161	0.018	0.0194	0.0211	0.0228	0.0247	0.0264	0.0282
in isopropanol	0.00155	0.00199	0.0026	0.00328	0.00413	0.00519	0.00648	0.00809	0.0101
in isopropyl acetate	0.0174	0.0213	0.0259	0.031	0.0371	0.044	0.052	0.061	0.0711
in methanol	0.00457	0.0055	0.00655	0.00777	0.00917	0.0108	0.0125	0.0145	0.0168
in n-butanol	0.00395	0.00465	0.00549	0.00642	0.0075	0.00875	0.0102	0.0118	0.0136
in n-propanol	0.00376	0.00461	0.0056	0.00678	0.00817	0.00979	0.0117	0.014	0.0166
in water	6.83e-06	7.69e-06	8.93e-06	1.06e-05	1.23e-05	1.42e-05	1.62e-05	1.87e-05	2.16e-05
